# Data from patent publication US6696481B2, “Salt of perindopril and pharmaceutical compositions containing it” (Les Laboratoires Servier, priority 2003, dated 2004).
# What was measured:
# [1] = Long-term stability study of immediate-release tablets, perindopril assayed by inverse-phase HPLC; format: physicochemical; details: for Percentage remaining (%): 6 months; for degradation rate: after 6 months
# Method: Long-term stability studies carried out under very precise temperature and humidity conditions have yielded the results indicated in the Table hereinbelow.
# In that study, perindopril was assayed by inverse-phase high-pressure liquid chromatography using, as eluant, an aqueous phase (comprising sodium heptane-sulphonate, and the pH of which is 2) and acetonitrile (67/33). Detection of the product was carried out by UV (215 nm).
# The study was carried out using immediate-release tablets containing either 2.4 mg of the arginine salt of perindopril or 2.0 mg of the tert-butylamine salt of perindopril (each of the two tablets containing 1.7 mg of perindopril). The tablets were assayed 6 months after the start of storage of the tablets at different temperatures and different relative humidities (% R.H.).
# The arginine salt used in this study is the L-arginine salt. It has been prepared according to a classical method of salification of organic chemistry.
# [2] = Shelf-life of tablets / pharmaceutical compositions; format: physicochemical
# From the text: However, in view of the intrinsic fragility of perindopril, the tert-butylamine salt has not been capable of providing a complete solution to the problems of the product's stability to heat and humidity. Indeed, for marketing, tablets of perindopril tert-butylamine salt must, in certain countries, be protected with additional packaging measures. Moreover, even for temperate-climate countries, that instability has made it impossible to obtain a shelf-life of more than 2 years for the tablets. Finally, for marketing of the tablets, they have to be marked “to be stored at a temperature less than or equal to 30 degrees”.
Compound,"Percentage remaining (%) ([1]; 25° C., 60% R.H.)","Percentage remaining (%) ([1]; 30° C., 60% R.H.)","Percentage remaining (%) ([1]; 40° C., 75% R.H.)",degradation rate [1],"shelf-life ([2]; pharmaceutical compositions, considered from the 6-month results)","shelf-life ([2]; tablets, temperate-climate countries) [years]"
CCC[C@H](N[C@@H](C)C(=O)N1[C@H](C(=O)O)C[C@@H]2CCCC[C@@H]21)C(=O)OCC.N=C(N)NCCC[C@H](N)C(=O)O [Arginine salt of perindopril],99.5,98.1,98.6,practically no degradation,at least three years,–
CC(C)(C)N.CCC[C@H](N[C@@H](C)C(=O)N1[C@H](C(=O)O)C[C@@H]2CCCC[C@@H]21)C(=O)OCC [tert-Butylamine salt of perindopril],101.0,94.4,67.2,approximately 33%,–,≤ 2
